Test results from patent US20090088380A1, “GHRH ANALOGS AND THERAPEUTIC USES THEREOF” (priority 2007, published 2009).
Non-standard residues stand in square brackets, D forms with d. Residues, ends and D or L forms follow the SMILES beside them.

Key:
Sprague-Dawley rats = conditions: rat, in vivo
Method: In order to assess such use of the GHRH analogs, the following experiments were undertaken. More specially, the goal was to assess the pharmacodynamic and pharmacokinetic profiles and acute toxicity of GHRH analog #5 when administered once by subcutaneous or intravenous injection to female Sprague-Dawley rats followed by a 14-day observation period and the pharmacodynamic profile in a male Beagle dog when the GHRH analog was administered at escalating doses to the same dog by subcutaneous injection with at least 2-day washout period. The above GHRH analog is a variation of a synthetic acetate salt of an amidated synthetic 29-amino acid peptide that corresponds to the amino-terminal segment of the naturally-occurring human growth hormone—releasing hormone (GHRH) with four amino acid substitutions in positions 2, 10, 15, and 22.
Human GHRH analog #5 in 0.9% sodium chloride for injection USP was administered once either by intravenous (IV) or subcutaneous (SC) injection to female rats followed by a 14-day observation period, as shown in Table 2. Prior to administration, all dosing formulations were filtered using a 0.22 μm filter to ensure sterility. The actual amount of GHRH analog #5 administered was calculated and adjusted based on the animal's most recent body weight. Dosing started at approximately the same time each day, commencing at 9:00 am ±30 minutes.

[1] = molecular target: T1, hGHRH(1-44)-NH2 binding sites in rat anterior pituitary (Rattus norvegicus, UniProt Q02644); assay: Relative binding affinity in rat anterior pituitary preparations, [125I-Tyr10]hGHRH(1-44)-NH2 radioligand; conditions: values compared to hGHRH(1-29)-NH2
T1 construct: from tissue; host or cells: anterior pituitary of 2-month old male Sprague Dawley rats
T1 sequence (Q02644 23-423 isoform Q02644-2 limits assumed): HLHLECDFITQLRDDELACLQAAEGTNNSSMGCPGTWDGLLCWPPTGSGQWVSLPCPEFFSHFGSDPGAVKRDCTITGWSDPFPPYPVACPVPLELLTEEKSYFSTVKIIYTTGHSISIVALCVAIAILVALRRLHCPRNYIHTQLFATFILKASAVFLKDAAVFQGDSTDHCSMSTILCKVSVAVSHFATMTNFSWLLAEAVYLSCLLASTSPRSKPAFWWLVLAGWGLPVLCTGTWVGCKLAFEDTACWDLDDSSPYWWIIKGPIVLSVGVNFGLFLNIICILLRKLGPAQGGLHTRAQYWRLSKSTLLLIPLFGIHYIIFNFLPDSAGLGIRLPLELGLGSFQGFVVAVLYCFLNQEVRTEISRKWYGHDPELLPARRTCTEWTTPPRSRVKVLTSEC
From the text: Initial selection of a candidate from the original 14 polysubstituted GHRH analogs described in the U.S. Pat. No. 5,854,216 was based upon in vitro data on receptor affinity in 2-month old male Sprague Dawley rat anterior pituitary preparations. The embodiments are based on the affinity of selected GHRH analogs for the human GHRH receptor (hGHRH-R) in baby hamster kidney (BHK) cells transfected with hGHRH-R, and on resistance to proteolysis in rat serum, human plasma or human serum. More precisely, the preferred drug candidates were selected, as compared to hGHRH(1-29)-NH2, for: i-their increased relative binding affinity to hGHRH(1-44)-NH2 binding sites in rat anterior pituitary in vitro as well as to hGHRH-R in BHK-expressing cells in vitro; and ii-their relative resistance to proteolysis in vitro.

Question: `CC[C@H](C)[C@H](NC(=O)[C@H](C)NC(=O)[C@H](CC(=O)O)NC(=O)[C@@H](C)NC(=O)[C@@H](N)Cc1ccc(O)cc1)C(=O)N[C@@H](Cc1ccccc1)C(=O)N[C@H](C(=O)N[C@@H](CC(N)=O)C(=O)N[C@@H](CO)C(=O)N[C@H](Cc1ccc(O)cc1)C(=O)N[C@@H](CCCNC(=N)N)C(=O)N[C@@H](CCCCN)C(=O)N[C@H](C(=O)N[C@@H](CC(C)C)C(=O)N[C@H](C)C(=O)N[C@@H](CCC(N)=O)C(=O)N[C@@H](CC(C)C)C(=O)N[C@@H](CO)C(=O)N[C@@H](C)C(=O)N[C@@H](CCCNC(=N)N)C(=O)N[C@@H](CCCCN)C(=O)N[C@@H](CCCCN)C(=O)N[C@@H](CC(C)C)C(=O)N[C@@H](CCC(N)=O)C(=O)N[C@@H](CC(=O)O)C(=O)N[C@H](C(=O)N[C@@H](CCSC)C(=O)N[C@@H](CO)C(=O)N[C@@H](CCCNC(=N)N)C(N)=O)[C@@H](C)CC)C(C)C)[C@@H](C)O` [GHRH analog #5, [D-Ala^2, D-Tyr^10, D-Ala^15, Lys^22] hGHRH(1-29)-NH2] (H-Y[dA]DAIFTNS[dY]RKVL[dA]QLSARKKLQDIMSR-NH2) was tested. Which Treatment-related clinical signs (Sprague-Dawley rats) did it give?
Answer: No treatment-related clinical signs were observed

Question: What about the “Relative binding affinity in rat anterior pituitary” value [1] of the same compound?
Answer: 1.04 ± 0.40
